Reference: ChEMBL document CHEMBL1201862, “PubChem BioAssay data set” (2004)
Calls of active or inactive are those of the source.

Columns and labels:
[1] = target: Bcl-2-like protein 10 (Homo sapiens, UniProt Q9HD36); assay: Biochemical TR3 FP assay of Bcl-B inhibitor potency, EC50 (AID 1243); type: functional
[2] = Luminescence-based counterscreen assay for KLF5 inhibitors: dose response cell-based high throughput screening assay to identify cytotoxic compounds using the IEC-6 intestinal epithelial cell line. [Related pubchem assays: 1700 (Primary screen.), 1834 (Confirmation screen.), 1858 (Summary AID.), 1905 (Counterscreen.)]; type: functional
[3] = target: Trypsin (Sus scrofa, UniProt P00761); assay: porcine trypsin inhibitors, dose response, selectivity assay for Rce1 protease inhibitor project, biochemical, quenched peptide fluorescence, cherry-pick (AID 488789)
[4] = target: T1, CAAX prenyl protease 2 (Saccharomyces cerevisiae S288c, UniProt Q03530); type: biochemical
T1 sequence (Q03530 whole entry): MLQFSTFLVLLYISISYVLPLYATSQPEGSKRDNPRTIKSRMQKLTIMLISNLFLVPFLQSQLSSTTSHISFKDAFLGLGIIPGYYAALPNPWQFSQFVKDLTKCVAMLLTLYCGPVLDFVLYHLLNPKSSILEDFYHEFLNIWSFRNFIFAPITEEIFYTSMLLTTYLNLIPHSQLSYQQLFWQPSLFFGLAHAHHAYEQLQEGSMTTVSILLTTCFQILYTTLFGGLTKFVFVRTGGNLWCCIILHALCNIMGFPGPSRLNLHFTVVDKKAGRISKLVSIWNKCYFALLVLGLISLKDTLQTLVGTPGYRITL

[5] = target: T2, Caspase-3 (Homo sapiens, UniProt P42574); type: functional;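 note: Dose-response selectivity test against caspase-3 for candidate inhibitors of sentrin-specific proteases (SENPs)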
T2 sequence (P42574 whole entry): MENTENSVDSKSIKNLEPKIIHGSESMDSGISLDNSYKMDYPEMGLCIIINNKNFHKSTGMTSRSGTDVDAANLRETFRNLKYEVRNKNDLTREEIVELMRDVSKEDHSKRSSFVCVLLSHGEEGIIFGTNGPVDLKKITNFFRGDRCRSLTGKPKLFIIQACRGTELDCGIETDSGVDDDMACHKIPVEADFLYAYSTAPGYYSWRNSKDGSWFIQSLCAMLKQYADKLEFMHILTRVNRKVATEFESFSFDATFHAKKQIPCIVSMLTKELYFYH

[6] = target: T3, Sentrin-specific protease 7 (Homo sapiens, UniProt Q9BQF6); type: functional;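 note: Luminescence-based dose-response confirmation of ultra-high-throughput screening hits, measuring inhibition of SENP7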
T3 sequence (Q9BQF6 whole entry): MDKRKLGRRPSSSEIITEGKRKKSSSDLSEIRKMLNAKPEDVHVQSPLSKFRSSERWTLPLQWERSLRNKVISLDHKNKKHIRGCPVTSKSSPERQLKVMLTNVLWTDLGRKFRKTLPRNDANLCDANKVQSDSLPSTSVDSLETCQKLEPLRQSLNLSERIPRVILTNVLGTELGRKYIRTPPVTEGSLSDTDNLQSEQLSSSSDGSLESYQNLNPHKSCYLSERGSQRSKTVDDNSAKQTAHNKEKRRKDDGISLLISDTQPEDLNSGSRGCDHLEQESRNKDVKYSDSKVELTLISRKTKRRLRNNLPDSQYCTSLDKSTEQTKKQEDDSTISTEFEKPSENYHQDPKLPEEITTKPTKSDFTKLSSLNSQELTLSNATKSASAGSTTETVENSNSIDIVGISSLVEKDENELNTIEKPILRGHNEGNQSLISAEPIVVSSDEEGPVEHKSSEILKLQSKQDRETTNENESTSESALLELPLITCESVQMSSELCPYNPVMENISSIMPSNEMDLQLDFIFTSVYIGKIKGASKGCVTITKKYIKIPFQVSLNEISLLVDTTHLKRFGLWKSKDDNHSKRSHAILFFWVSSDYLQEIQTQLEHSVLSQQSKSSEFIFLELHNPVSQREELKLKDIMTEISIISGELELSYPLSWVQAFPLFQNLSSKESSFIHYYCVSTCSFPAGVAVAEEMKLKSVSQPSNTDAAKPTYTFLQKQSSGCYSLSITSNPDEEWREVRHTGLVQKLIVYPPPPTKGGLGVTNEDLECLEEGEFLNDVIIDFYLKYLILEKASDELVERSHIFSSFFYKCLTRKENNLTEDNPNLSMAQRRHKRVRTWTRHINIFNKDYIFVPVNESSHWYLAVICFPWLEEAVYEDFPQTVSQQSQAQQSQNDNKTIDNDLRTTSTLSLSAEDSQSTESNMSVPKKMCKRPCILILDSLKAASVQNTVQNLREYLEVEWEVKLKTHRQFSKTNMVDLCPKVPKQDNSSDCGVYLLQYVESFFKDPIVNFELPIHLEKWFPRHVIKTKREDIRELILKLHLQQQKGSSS

[7] = target: T4, Sentrin-specific protease 6 (Homo sapiens, UniProt Q9GZR1); type: functional;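 note: Luminescence-based dose-response confirmatory assay of SENP6 inhibition, following up an ultra-high-throughput screen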
T4 sequence (Q9GZR1 whole entry): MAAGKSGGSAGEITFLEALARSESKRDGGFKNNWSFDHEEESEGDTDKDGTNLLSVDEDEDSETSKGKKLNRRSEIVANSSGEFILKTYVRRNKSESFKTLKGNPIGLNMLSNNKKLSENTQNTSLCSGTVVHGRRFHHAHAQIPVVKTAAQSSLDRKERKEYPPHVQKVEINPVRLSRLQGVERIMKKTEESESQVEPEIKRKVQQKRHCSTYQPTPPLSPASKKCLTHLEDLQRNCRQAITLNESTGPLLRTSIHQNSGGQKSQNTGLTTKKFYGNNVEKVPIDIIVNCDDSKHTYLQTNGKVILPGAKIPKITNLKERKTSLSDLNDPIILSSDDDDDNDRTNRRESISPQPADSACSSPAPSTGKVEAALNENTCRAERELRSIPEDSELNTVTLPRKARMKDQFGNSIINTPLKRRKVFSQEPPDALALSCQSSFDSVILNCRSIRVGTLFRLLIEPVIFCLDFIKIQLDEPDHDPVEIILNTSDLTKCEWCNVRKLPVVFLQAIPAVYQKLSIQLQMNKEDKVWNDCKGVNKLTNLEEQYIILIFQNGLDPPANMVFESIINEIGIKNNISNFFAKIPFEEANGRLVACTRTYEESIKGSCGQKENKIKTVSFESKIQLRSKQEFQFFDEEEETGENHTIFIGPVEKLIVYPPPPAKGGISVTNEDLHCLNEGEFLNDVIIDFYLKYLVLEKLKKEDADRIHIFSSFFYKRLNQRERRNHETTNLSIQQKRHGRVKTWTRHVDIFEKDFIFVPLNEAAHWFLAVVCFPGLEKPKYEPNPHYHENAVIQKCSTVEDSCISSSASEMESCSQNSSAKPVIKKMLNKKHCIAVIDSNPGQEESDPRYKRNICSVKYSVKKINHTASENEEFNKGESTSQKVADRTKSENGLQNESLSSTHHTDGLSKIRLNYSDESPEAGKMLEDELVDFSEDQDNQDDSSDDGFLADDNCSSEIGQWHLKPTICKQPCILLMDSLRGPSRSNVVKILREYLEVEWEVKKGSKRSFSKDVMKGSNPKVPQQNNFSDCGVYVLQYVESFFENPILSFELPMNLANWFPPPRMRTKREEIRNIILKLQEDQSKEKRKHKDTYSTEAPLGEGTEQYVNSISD

[8] = target: T5, Sentrin-specific protease 8 (Homo sapiens, UniProt Q96LD8); type: functional;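 note: luminescence read-out of SENP8 inhibition, dose-response confirmation following an ultra-high-throughput screen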
T5 sequence (Q96LD8 whole entry): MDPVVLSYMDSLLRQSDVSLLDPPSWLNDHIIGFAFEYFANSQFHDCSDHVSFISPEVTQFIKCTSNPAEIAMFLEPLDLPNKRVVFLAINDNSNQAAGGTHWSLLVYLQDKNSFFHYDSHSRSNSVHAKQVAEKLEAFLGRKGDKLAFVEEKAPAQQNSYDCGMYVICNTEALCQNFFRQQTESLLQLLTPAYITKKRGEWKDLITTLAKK

[9] = LGR2 antagonists, dose response, cell-based, HEK293, CRE-luciferase reporter, cherry pick, set 2 (AID 743343); type: functional;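 note: transfected cells were stimulated with diluted bursicon conditioned medium after compound addition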
[10] = MC4R antagonists, dose response, counter-screen for LGR2 antagonist project, cell-based, plate reader, cherry pick (AID 743444); type: functional;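 note: transfected HEK 293 cells stimulated with alpha-MSH peptide; potency of inhibitors of the alpha-MSH evoked signal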

Sequence of Bcl-2-like protein 10 (Q9HD36 whole entry): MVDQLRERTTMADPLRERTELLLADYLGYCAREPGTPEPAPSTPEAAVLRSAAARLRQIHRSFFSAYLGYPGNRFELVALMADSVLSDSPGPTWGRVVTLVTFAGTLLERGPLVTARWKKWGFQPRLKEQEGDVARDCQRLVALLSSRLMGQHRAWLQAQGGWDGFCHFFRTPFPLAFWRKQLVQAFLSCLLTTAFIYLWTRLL
Sequence of Trypsin (P00761 whole entry): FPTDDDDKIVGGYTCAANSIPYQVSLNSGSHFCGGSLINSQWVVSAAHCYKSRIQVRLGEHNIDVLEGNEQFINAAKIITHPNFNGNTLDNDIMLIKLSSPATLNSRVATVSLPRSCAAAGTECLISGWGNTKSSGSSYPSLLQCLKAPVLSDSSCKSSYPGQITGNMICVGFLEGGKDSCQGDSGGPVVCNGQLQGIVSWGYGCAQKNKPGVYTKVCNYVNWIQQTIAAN

Row | Structure (SMILES) | EC50 [1] | IC50 [2] | AC50 [3] | AC50 [4] | IC50 [5] | IC50 [6] | IC50 [7] | IC50 [8] | AC50 [9] | AC50 [10]
1 | Nc1ccc(S(=O)(=O)O)c2cccc(O)c12 | 1.05 µM (active) | – | – | – | – | – | – | – | – | –
2 | Nc1c(C(=O)Nc2cccc(C(=O)O)c2)sc2nc3c(cc12)CCCC3 | – | > 39.8 µM (not active) | 10.5 µM (active) | 47.8 µM (active) | 71.6 µM (active) | 7.47 µM (active) | 15.1 µM (active) | 31 µM (active) | 3.06 µM (active) | 3.29 µM (active)
